Laboratory results from patent US11217811B2, “Unique redox-active phenothiazine combinations with depressed melting points for increased solubility and method of use in energy storage and in redox flow batteries” (University of Kentucky Research Foundation, priority 2019, dated 2022).
Converted amounts (≈) assume the structure as drawn. Like-named read-outs stand apart in the source and are kept apart here.

Assay: Solubility in acetonitrile, determined by 1H NMR spectroscopy
Type: physicochemical
Method: The solubility of each of such mixtures was determined according to the following procedure: acetonitrile was added to the vials containing the samples in aliquots ranging from 0.1 to 1 mL; after every aliquot of solvent was added, each sample was shaken, sonicated, and lightly warmed up with a heat gun (about 40° C.); if the suspended solid persisted, another aliquot was added, and the process repeated until a clear solution was obtained. The warm solution was left to cool down to room temperature: if any solid formed, more solvent was added, and the process repeated until the solution remained clear indefinitely. The solubility was then determined using ^1H NMR spectroscopy. […] The results are summarized in Table 1: in both the cases examined, the solubility of EPT increased substantially when mixed with MEPT.

[1] = organic solvent or mixture, thermodynamic from solid, pure compound in acetonitrile, room temperature, read-out: Solubility of the single component
[2] = pure compound in acetonitrile, room temperature
[3] = acetonitrile, RPT-TFSI and the corresponding binary blend

Row | solubility [1] [mM] | SMILES | solubility [3] [mM] | other results
1 | 140 (≈ 38.6 mg/mL) | c1ccc(N2c3ccccc3Sc3ccccc32)cc1 [PhPT, N-phenylphenothiazine] |  | 
2 |  | CCN1c2ccccc2[S+]c2ccccc21.F[B-](F)(F)F [EPT-BF4, EPT-tetrafluoroborate] |  | Solubility of the single component [2]: 0.33 mol/L
3 |  | COCCN1c2ccccc2[S+]c2ccccc21.F[B-](F)(F)F [MEPT-BF4, MEPT-tetrafluoroborate] |  | Solubility of the single component [2]: 0.31 mol/L
4 | 240 (≈ 51.2 mg/mL) | CN1c2ccccc2Sc2ccccc21 [MPT, N-methylphenothiazine] |  | 
5 | 110 (≈ 25 mg/mL) | CCN1c2ccccc2Sc2ccccc21 [EPT, N-ethylphenothiazine] |  | 
6 |  | COCCN1c2ccccc2Sc2ccccc21 [MEPT, N-(2-methoxyethyl)phenothiazine] |  | Miscibility in acetonitrile (acetonitrile): miscible in acetonitrile in all ratios
7 |  | CCN1c2ccccc2[S+]c2ccccc21.O=S(=O)([N-]S(=O)(=O)C(F)(F)F)C(F)(F)F [EPT-TFSI, EPT-bis(trifluoromethanesulfonyl)imide] | 370 | 
8 |  | O=S(=O)([N-]S(=O)(=O)C(F)(F)F)C(F)(F)F.c1ccc(N2c3ccccc3[S+]c3ccccc32)cc1 [PhPT-TFSI, PhPT-bis(trifluoromethanesulfonyl)imide] | 1640 | 
9 |  | CN1c2ccccc2[S+]c2ccccc21.O=S(=O)([N-]S(=O)(=O)C(F)(F)F)C(F)(F)F [MPT-TFSI, MPT-bis(trifluoromethanesulfonyl)imide] | 1500 | 
